According to patent US4883807A, “1,2,5,6-tetrahydropyridyl triazoles and tetrazoles useful as fungicides” (Imperial Chemical Industries PLC, priority 1986, dated 1989):

Columns and labels:
Puccinia recondita = experiment: foliar fungal disease control on plants, Puccinia recondita on wheat; assay type: in vivo; settings: 100 ppm foliar spray plus root drench ca. 40 ppm a.i./dry soil, one or two days before inoculation
Method: (§1) The technique employed was as follows.
(§2) The plants were grown in John Innes Potting Compost (No. 1 or 2) in 4 cm diameter minipots. The test compounds were formulated either by bead milling with aqueous Dispersol T or as a solution in acetone or acetone/ethanol which was diluted to the required concentration immediately before use. For the foliage diseases, the formulations (100 ppm active ingredient) were sprayed on to the foliage and applied to the roots of the plants in the soil. The sprays were applied to maximum retention and the root drenches to a final concentration equivalent to approximately 40 ppm a.i./dry soil. Tween 20, to give a final concentration of 0.05%, was added when the sprays were applied to cereals.
(§3) For most of the tests the compound was applied to the soil (roots) and to the foliage (by spraying) one or two days before the plant was inoculated with the disease. An exception was the test on Erysiphe graminis in which the plants were inoculated 24 hours before treatment. Foliar pathogens were applied by spray as spore suspensions onto the leaves of test plants. After inoculation, the plants were put into an appropriate environment to allow infection to proceed and then incubated until the disease was ready for assessment. The period between inoculation and assessment varied from four to fourteen days according to the disease and environment.
(§4) The disease control was recorded by the following grading: […]

Erysiphe graminis = experiment: foliar fungal disease control on plants, Erysiphe graminis on barley; assay type: in vivo; settings: 100 ppm foliar spray plus root drench ca. 40 ppm a.i./dry soil; inoculated 24 hours before treatment
Method: as §1, §2, §3, §4

Venturia inaequalis = experiment: foliar fungal disease control on plants, Venturia inaequalis on apple; assay type: in vivo; settings: 100 ppm foliar spray plus root drench ca. 40 ppm a.i./dry soil, one or two days before inoculation
Method: as §1, §2, §3, §4

Pyricularia oryzae = assay type: in vivo; settings: 100 ppm foliar spray plus root drench ca. 40 ppm a.i./dry soil, one or two days before inoculation
Cercospora arachidicola = experiment: foliar fungal disease control on plants, Cercospora arachidicola on peanut; assay type: in vivo; settings: 100 ppm foliar spray plus root drench ca. 40 ppm a.i./dry soil, one or two days before inoculation
Method: as §1, §2, §3, §4

Plasmopara viticola = experiment: foliar fungal disease control on plants, Plasmopara viticola on vine; assay type: in vivo; settings: 100 ppm foliar spray plus root drench ca. 40 ppm a.i./dry soil, one or two days before inoculation
Method: as §1, §2, §3, §4

Phytophthora infestans = assay type: in vivo; settings: 100 ppm foliar spray plus root drench ca. 40 ppm a.i./dry soil, one or two days before inoculation
Heliothis virescens = experiment: insecticidal test, tobacco budworm - larvae; assay type: in vivo; settings: in Gossypium hirsutum, 72 h, read-out: grading of mortality, HV
Method: (§5) The activity of the compounds was determined using a variety of insect, mite and nematode pests. The compounds were used in the form of liquid preparations containing 500 parts per million (ppm) by weight of the compound except for the test on Meloidogyne incognita when liquid preparations of 250 ppm by weight were used. The preparations were made by dissolving the compounds in acetone and diluting the solutions with water containing 0.1% by weight of a wetting agent sold under the trade name "SYNPERONIC" NX until the liquid preparations contained the required concentration of the product. "SYNPERONIC" is a Registered Trade Mark.
(§6) The test procedure adopted with regard to each pest was basically the same and comprised supporting a number of the pests on a medium which was usually a host plant or a foodstuff on which the pests feed, and treating either or both the pests and the medium with the preparations. The mortality of the pests was then assessed at periods usually varying from one to seven days after the treatment.
(§7) The results of the tests are given in Table IX for each of the products as a grading of mortality designated as 9, 5 or 0 where 9 indicates 80-100% mortality (70-100% root-knot reduction as compared with untreated plants for Meloidogyne incognita), 5 indicates 50-79% mortality (50-69% root knot reduction for Meloidogyne incognita) and 0 indicates less than 50% mortality (root-knot reduction for Meloidogyne incognita).
(§8) In Table IX the pest organism used in designated by a letter code and the pests species, the support medium or food, and the type and duration of test is given in Table VII.

Meloidogyne incognita = experiment: nematode test, tomato root knot eelworm - larvae, semi in-vitro; assay type: in vivo; settings: 250 ppm, residual, 7 days
Method: as §5, §6, §7, §8

[1] = test system: Tetranychus urticae (spider mites - adult); experiment: whole plant or invertebrate; settings: in Phaseolus vulgaris, 72 h, read-out: grading of mortality, TUa
[2] = test system: Tetranyhus urticae (spider mites - ova); experiment: whole plant or invertebrate; settings: 144 h, read-out: grading of mortality, TUe
Myzus persicae = experiment: whole plant or invertebrate; settings: in Brassica rapa, 72 h, read-out: grading of mortality, MP
Nilaparvata lugens = experiment: whole plant or invertebrate; settings: in Oryza sativa, 72 h, read-out: grading of mortality, NL
Musca domestica [3] = experiment: whole plant or invertebrate; settings: 24 h, read-out: grading of mortality, MD
Blattella germanica = experiment: whole plant or invertebrate; settings: 72 h, read-out: grading of mortality, BG
Spodoptera exigua = experiment: whole plant or invertebrate; settings: in Gossypium hirsutum, 72 h, read-out: grading of mortality, SP
Diabrotica balteata = experiment: whole plant or invertebrate; settings: in Zea mays, 72 h, read-out: grading of mortality, DB
Nephotettix cincticeps = experiment: whole plant or invertebrate; settings: in Oryza sativa, 72 h, read-out: grading of mortality, NC
Musca domestica [4] = experiment: knockdown properties against houseflies; assay type: in vivo; settings: 2000 ppm solution (1 ml) sprayed directly
Method: A sample of compound 3 was diluted in 2 mls acetone and made upto a 2000 ppm solution with 0.1% aqueous synperonic solution. The solution (1 ml) was then sprayed directly onto twenty mixed sex houseflies held in a drinking cup. Immediately after spraying the cups were inverted and left to dry. An assessment of knockdown was made when the cups were righted 15 minutes later. The flies were then provided with a 10% sucrose solution on a cotton wool pad, and held for 48 hours in a holding room conditioned at 25° C. and 65% relative humidity before a mortality assessment was made.

Row | SMILES | disease control grading, PUCCINIA RECONDITA (Wheat) (Puccinia recondita) | disease control grading, ERYSIPHE GRAMINIS (Barley) (Erysiphe graminis) | disease control grading, VENTURIA INAEQUALIS (Apple) (Venturia inaequalis) | disease control grading, P[…] (Rice) (Pyricularia oryzae) | disease control grading, CERCOSPCRA ARACHIDICOLA (Peanut) (Cercospora arachidicola) | disease control grading, […] (Vine) (Plasmopara viticola) | disease control grading, PH[…] (TOMATOES) (Phytophthora infestans) | mortality at 500 ppm (Heliothis virescens) | grading of root-knot reduction, MI (Meloidogyne incognita) | mortality at 500 ppm [1] | mortality at 500 ppm [2] | mortality at 500 ppm (Myzus persicae) | mortality at 500 ppm (Nilaparvata lugens) | mortality at 500 ppm (Musca domestica [3]) | mortality at 500 ppm (Blattella germanica) | mortality at 500 ppm (Spodoptera exigua) | mortality at 500 ppm (Diabrotica balteata) | mortality at 500 ppm (Nephotettix cincticeps) | knockdown (Musca domestica [4]; 15 minutes) | kill (Musca domestica [4]; 48 hours, 25° C., 65% relative humidity)
1 | CO/C=C(/C(=O)OC)n1cccc1/C=N\OC [Compound 2 of Table I] | 4 | 4 | 4 | 3 (trace - 5% of disease on untreated plants) | 4 | 4 | 0 (60-100% of disease on untreated plants) | < 50% | 0 (less than 50% mortality (root-knot reduction for Meloidogyne incognita)) | 80 to 100% | < 50% | 80 to 100% | < 50% | < 50% | < 50% | < 50% | 50 to 79% | – | – | –
2 | CCOC(=O)/C(C#N)=C/c1cccn1/C(=C\OC)C(=O)OC [Compound 19 of Table I] | 4 | 0 (60-100% of disease on untreated plants) | 0 (60-100% of disease on untreated plants) | 0 (60-100% of disease on untreated plants) | 3 (trace - 5% of disease on untreated plants) | 4 | 0 (60-100% of disease on untreated plants) | – | – | – | – | – | – | – | – | – | – | – | – | –
3 | CO/C=C(/C(=O)OC)n1cccc1/C=C/C(=O)OC | 4 | 4 | 4 | 4 | 2 (6-25% of disease on untreated plants) | 4 | 4 | < 50% | 0 (less than 50% mortality (root-knot reduction for Meloidogyne incognita)) | 80 to 100% | < 50% | < 50% | – | < 50% | 80 to 100% | – | < 50% | 50 to 79% | – | –
4 | C#CCO/N=C/c1cccn1/C(=C\OC)C(=O)OC [Compound 7 of Table I] | 4 | 4 | 4 | 4 | 4 | 4 | 3 (trace - 5% of disease on untreated plants) | – | 0 (less than 50% mortality (root-knot reduction for Meloidogyne incognita)) | 80 to 100% | < 50% | < 50% | < 50% | < 50% | 50 to 79% | – | 80 to 100% | – | – | –
5 | CCOC(=O)/C=C/c1cccn1/C(=C\OC)C(=O)OC [(Z)-methyl 3-methoxy-2-[2-(E-2-carbethoxyethenyl)pyrrol-1-yl]acrylate] | 4 | 0 (60-100% of disease on untreated plants) | 4 | 4 | 4 | 4 | 4 | – | – | – | – | – | – | – | – | – | – | – | – | –
6 | CO/C=C(/C(=O)OC)n1cccc1CN1CCOCC1 [Compound 5 of Table II] | 2 (6-25% of disease on untreated plants) | 2 (6-25% of disease on untreated plants) | 4 | 0 (60-100% of disease on untreated plants) | 4 | 0 (60-100% of disease on untreated plants) | 0 (60-100% of disease on untreated plants) | – | – | – | – | – | – | – | – | – | – | – | – | –
7 | CO/C=C(/C(=O)OC)n1cccc1/C=N/OC [Compound 1 of Table I] | 4 | 4 | 4 | 4 | 4 | 4 | 3 (trace - 5% of disease on untreated plants) | – | – | – | – | – | – | – | – | – | – | – | – | –
8 | C=CCO/N=C/c1cccn1/C(=C\OC)C(=O)OC [Compound 3 of Table I] | 4 | 4 | 4 | – | 4 | 4 | 0 (60-100% of disease on untreated plants) | < 50% | 5 (50-69% root knot reduction for Meloidogyne incognita) | 80 to 100% | < 50% | < 50% | 80 to 100% | 80 to 100% | 80 to 100% | < 50% | 80 to 100% | – | 90% | 93%
9 | CO/C=C(/C(=O)OC)n1cccc1/C=N/OCc1ccccc1 [Compound 5 of Table I] | 3 (trace - 5% of disease on untreated plants) | 3 (trace - 5% of disease on untreated plants) | 4 | 4 | 3 (trace - 5% of disease on untreated plants) | 4 | 0 (60-100% of disease on untreated plants) | – | – | – | – | – | – | – | – | – | – | – | – | –
10 | C=CCO/N=C\c1cccn1/C(=C\OC)C(=O)OC [Compound 4 of Table I] | 4 | 4 | 4 | 4 | 4 | 4 | 4 | – | – | – | – | – | – | – | – | – | – | – | – | –
